{"source": "patent US6235872A", "about": "“Proapoptotic peptides dependence polypeptides and methods of use” (The Burnham Institute, priority 1998, dated 2001)", "key": {"[1]": {"tested_on": "PC3", "test": "Cell viability after peptide treatment, PC3", "assay_type": "cell-based, human", "conditions": "50 μM stated for tat-GG-SATLDALLAALRRI; 18 hours", "protocol": "(§1) Briefly, NTera 2 human neuronal cells, R2 neural cells, CSM14.1 neural cells, LNCaP cells, SH-SY5Y human neuroblastoma cells and PC12 NRA5 cells were grown in DMEM/F12 (50/50) supplemented with 5% fetal bovine serum and seeded onto 96-well plates. […] The purified peptides were dissolved in tissue culture grade water and diluted to 50 μM and 100 μM in serum free medium and directly added to the cells in 96-well plates. The cells were incubated at 37° C. for 18 hours and 20 μM propidium iodide was added. Cell viability was determined using a fluorimeter as previously described (Kane et al. J. Neurosci. Res. 40:269-275 (1995))."}, "[2]": {"tested_on": "PC12 NRA5 cells", "conditions": "100 μM peptide; 18 hours", "method": "Briefly, NTera 2 human neuronal cells, R2 neural cells, CSM14.1 neural cells, LNCaP cells, SH-SY5Y human neuroblastoma cells and PC12 NRA5 cells were grown in DMEM/F12 (50/50) supplemented with 5% fetal bovine serum and seeded onto 96-well plates. The peptides were synthesized and HPLC purified (Coast Scientific, San Diego, Calif.). The purified peptides were dissolved in tissue culture grade water and diluted to 50 μM and 100 μM in serum free medium and directly added to the cells in 96-well plates. The cells were incubated at 37° C. for 18 hours and 20 μM propidium iodide was added. Cell viability was determined using a fluorimeter as previously described (Kane et al. J. Neurosci. Res. 40:269-275 (1995))."}, "[3]": {"tested_on": "LNCaP cells", "test": "Cell viability after peptide treatment, LNCaP", "assay_type": "cell-based", "conditions": "50 μM stated for tat-GG-SATLDALLAALRRI; 18 hours", "protocol": "as §1"}, "[4]": {"tested_on": "NTera 2 human neuronal cells", "test": "Cell viability after peptide treatment, NTera 2", "assay_type": "cell-based", "conditions": "50 μM stated for tat-GG-SATLDALLAALRRI; 18 hours", "protocol": "as §1"}, "[5]": {"tested_on": "COS-7", "test": "Cell viability after peptide treatment, COS-7", "assay_type": "cell-based", "conditions": "50 μM stated for tat-GG-SATLDALLAALRRI; 18 hours", "protocol": "as §1"}, "[6]": {"tested_on": "NTera 2, R2, CSM14.1, LNCaP, SH-SY5Y and PC12 NRA5 cells", "test": "Induction of cell death by peptides added to cells (propidium iodide, Table 1)", "assay_type": "cell-based", "conditions": "peptide 50 μM and 100 μM in serum free medium, 18 hours", "method": "A region of a dependence polypeptide that mediates apoptosis in cells was analyzed for its ability to stimulate apoptosis in cells. […] The effect of replacing leucine with lysine at position 7 (purple, […]; SEQ ID NO:41; tat-purple, tat-GG-[…]; SEQ ID NO:42), removing the carboxy-terminal \"RRI\" sequence (gray, SATLDALLAAL; SEQ ID NO:43; tat-gray, tat-GG--SATLDALLAAL; SEQ ID NO:44) or amino-terminal \"SATLD\" sequence (green; […]; SEQ ID NO:45) on the proapoptotic activity of a dependence peptide was examined. […] The 12 amino acid HIV tat protein fragment ([…]; SEQ ID NO:52; hereinafter termed \"tat\"), which facilitates cellular entry, also was included on the amino terminus of some of the peptides tested. […] For convenience, the hyphen in the above amino acid sequences is a nomenclature intended to set apart the proapoptotic dependence peptides and variants thereof or control peptides from other amino acid residues contained in the peptide."}, "[7]": {"tested_on": "SH-SY5Y human neuroblastoma cells", "test": "Cell death by tat-linked peptides and mutated variants in SH-SY5Y cells (FIG. 2)", "assay_type": "cell-based", "conditions": "relative to unmutated tat-GG-SATLDALLAALRRI", "method": "To further analyze the effect of particular point mutations on apoptosis, additional studies employing dependence peptides and mutated variants linked to tat were performed in SH-SY5Y cells. The results shown in FIG. 2 are of studies in which quadruplicate samples were averaged, and the studies were repeated 2 to 10 times for each peptide. Each column represents the percentage cell death and the bars indicate the standard error. The amount of peptide added to the cells is indicated above each column."}, "[8]": {"tested_on": "293T cells", "test": "Apoptosis in 293T cells expressing FKBP/p75^NTR chimeras with or without FK1012", "assay_type": "cell-based", "conditions": "2 μM FK1012, 35 μM tamoxifen", "description": "The FKBP12-tagging vector MF1E/MF3E, which included an amino-terminal myristylation site for membrane insertion (Spencer et al. Science 262:1019-1024 (1993)), contains one and three repeats of the FK-binding protein (FKBP) sequence. The FKBP12 vector served as a PCR template and was amplified using primers flanked by Nhe I (5' primer) or Nde I (3' primer) sites to produce DNA fragments consisting of one or three FK-binding domains (FKBP). The resulting PCR products contained either one or three FKBP sequence repeats and were subcloned into pcDNA3.1. A DNA fragment encoding an intracytoplasmic form of p75^NTR was removed from the pUC18-p75 plasmid by digestion with Nde I and Bam HI, and the DNA fragment was ligated to the carboxy-terminus of the FKBP sequences within the pcDNA3.1-FKBP construct. The resulting two expression vectors encoded FKBP/p75^NTR chimeras comprising one or three FKBP repeats at the amino-terminus fused to an intracytoplasmic form of p75^NTR at the carboxy-terminus.\nThe stimulation of cellular apoptosis by Fas and TNFR I is induced by ligand binding which triggers multimerization of Fas and TNFR I. The assembly of such a death-inducing signaling complex contributes to cellular apoptosis by activating caspase-8. The effect that dimerization or multimerization has on the ability of p75^NTR to stimulate apoptosis was analyzed. […]"}, "[9]": {"tested_on": "isolated mitochondria", "test": "Mitochondrial swelling followed spectrophotometrically at 520 nm (FIG. 3A)", "assay_type": "biochemical, rats", "conditions": "0.5 mM, positive control", "method": "Consistent with these observations, molecules such as Bcl-2 which inhibit apoptosis inhibit mitochondrial swelling. Briefly, mitochondria were prepared as previously described (Ellerby et al. J. Neurosci. 17:6165-6178 (1997)) except for the following modifications. The rats were sacrificed by CO2 inhalation without fasting and the mitochondria were isolated in MIB buffer (210 mM mannitol, 70 mM sucrose, 0.05% BSA, 1 mM EGTA, 5 mM Hepes-NaOH, pH 7.4). The mitochondrial pellet samples resuspended in MCB buffer (300 mM mannitol, 10 mM KH2 PO4, 0.1% BSA, pH 7.2) and applied to a discontinuous sucrose gradient (1.6 M sucrose, 10 mM KH2 PO4, pH 7.5; 1.2 M sucrose, 10 mM KH2 PO4, pH 7.5) were centrifuged at 48,500 g for 1 hour. […] The mitochondrial pellets were collected, resuspended in MSB, and stored on ice. After the addition of 50 μM of the peptide, mitochondrial swelling was followed spectrophotometrically at 520 nm (Petronilli et al. J. Biol. Chem. 269:16638-16642 (1994)) in CFS (220 mM mannitol, 68 mM sucrose, 2 mM NaCl, 5 mM KH2 PO4, 2 mM MgCl2, 5 mM succinate, 10 mM Hepes-NaOH, 2 mM ATP, 50 μg/ml creatine kinase, 10 mM phosphocreatine, 0.75 μg/ml rotenone, pH 7.4)."}}, "note": "Entries after “also recorded” stand apart in the source; their conditions may differ. Where no end group is shown, it is not given here.", "data": [{"compound": "GRKKRRQRRRPPGGKDRNLRRITRMVLV [tat-turquoise, reference compound]", "values": [{"measurement": "cell viability, PC3", "setting": "[1]", "value": 87.9, "unit": "%"}, {"measurement": "cell viability, NRA 5 cells", "setting": "[2]", "value": 95.7, "unit": "%"}, {"measurement": "cell viability, LNCaP", "setting": "[3]", "value": 46.7, "unit": "%"}, {"measurement": "cell viability, NTera 2", "setting": "[4]", "value": 67.6, "unit": "%"}]}, {"compound": "GRKKRRQRRRPPGGSATLDALLAALRRI [tat-blue]", "values": [{"measurement": "cell viability, COS-7", "setting": "[5]", "value": 1.5, "unit": "%"}, {"measurement": "cell viability, PC3", "setting": "[1]", "value": 4.2, "unit": "%"}, {"measurement": "cell viability, NRA 5 cells", "setting": "[2]", "value": 0, "unit": "%"}, {"measurement": "cell viability, LNCaP", "setting": "[3]", "value": 0, "unit": "%"}, {"measurement": "cell viability, NTera 2", "setting": "[4]", "value": 1.3, "unit": "%"}]}, {"compound": "INLKALAALAKKIL [MP]", "values": [{"measurement": "Effect on apoptosis", "setting": "[6]", "value": "underwent apoptosis; also recorded: Apoptotic"}]}, {"compound": "tat-GG-SATLDALLAALOOI (GRKKRRQRRRPPGGSATLDALLAALQQI) [arginines at positions 12 and 13 replaced with glutamine]", "values": [{"measurement": "decrease of the ability to stimulate SH-SY5Y cell death", "setting": "[7]", "value": 80, "unit": "%"}]}, {"compound": "GRKKRRQRRRPPGGDLSLARLATARLAI [tat-yellow, reference compound]", "values": [{"measurement": "cell viability, PC3", "setting": "[1]", "value": 97, "unit": "%"}]}, {"compound": "FK1012", "values": [{"measurement": "apoptosis of cells containing single copy or triple copy FKBP/p75^NTR protein chimera", "setting": "[8]", "value": "apoptosis was blocked"}]}, {"compound": "GRKKRRQRRRPPGGSATLDALLAAL [tat-gray, tat-GG-SATLDALLAAL]", "values": [{"measurement": "cell viability, COS-7", "setting": "[5]", "value": 97.1, "unit": "%"}, {"measurement": "cell viability, PC3", "setting": "[1]", "value": 90.5, "unit": "%"}, {"measurement": "cell viability, LNCaP", "setting": "[3]", "value": 59.1, "unit": "%"}, {"measurement": "cell viability, NTera 2", "setting": "[4]", "value": 76.7, "unit": "%"}]}, {"compound": "[Ca+2].[Cl-].[Cl-]", "note": "[calcium chloride]", "values": [{"measurement": "mitochondrial swelling (decreased absorbance at 520 nm)", "setting": "[9]", "value": "rapid swelling"}]}, {"compound": "GRKKRRQRRRPPGGSATLDAKLAALRRI [tat-purple]", "values": [{"measurement": "cell viability, COS-7", "setting": "[5]", "value": 97.8, "unit": "%"}, {"measurement": "cell viability, PC3", "setting": "[1]", "value": 92.8, "unit": "%"}, {"measurement": "cell viability, NTera 2", "setting": "[4]", "value": 69.3, "unit": "%"}]}]}
